The compound `COc1ccc(-c2nc(C(F)(F)F)[nH]c2-c2ccc(S(C)(=O)=O)cc2)cc1C` [Example 42, 4-(4-Methoxy-3-methylphenyl)-5-[4-(methylsulfonyl)phenyl]-2-(trifluoromethyl)-1H-imidazole] gave a melting point of 265 to 267 °C. Then `Cc1ccc(-c2[nH]c(C(F)(F)F)nc2-c2ccc(S(C)(=O)=O)cc2)cc1F` [Example 56, 5-(3-Fluoro-4-methylphenyl)-4-[4-(methylsulfonyl)phenyl]-2-(trifluoromethyl)-1H-imidazole], with 251 to 252 °C; and `COc1ccc(-c2[nH]c(C(F)(F)F)nc2-c2ccc(S(C)(=O)=O)cc2)cc1Cl` [Example 57, 5-(3-Chloro-4-methoxyphenyl)-4-[4-(methylsulfonyl)phenyl]-2-(trifluoromethyl)-1H-imidazole], with 288 to 291 °C.

Take `COc1c(C)cc(-c2[nH]c(C(F)(F)F)nc2-c2ccc(S(C)(=O)=O)cc2)cc1C` [Example 52, 5-(3,5-Dimethyl-4-methoxyphenyl)-4-[4-(methylsulfonyl)phenyl]-2-(trifluoromethyl)-1H-imidazole]: the melting point lay in the range of 265 to 267 °C.

The compound `Cc1ccccc1-c1[nH]c(C(F)(F)F)nc1-c1ccc(S(C)(=O)=O)cc1` [Example 67, 5-(2-Methylphenyl)-4-[4-(methylsulfonyl)phenyl]-2-(trifluoromethyl)-1H-imidazole] yielded a melting point of 180 to 190 °C.

`CS(=O)(=O)c1ccc(-c2nc(C(F)(F)F)[nH]c2C2CCCCC2)cc1` [Example 69, 5-(Cyclohexyl)-4-[4-(methylsulfonyl)phenyl]-2-(trifluoromethyl)-1H-imidazole]: the melting point fell in the range of 250 to 253 °C. Then `COc1cccc(-c2[nH]c(C(F)(F)F)nc2-c2ccc(S(C)(=O)=O)cc2)c1` [Example 65, 5-(3-Methoxyphenyl)-4-[4-(methylsulfonyl)phenyl]-2-(trifluoromethyl)-1H-imidazole], with 202 to 208 °C.

For the compound `CS(=O)(=O)c1ccc(-c2nc(C(F)(F)F)[nH]c2-c2cccc(F)c2)cc1` [Example 66, 5-(3-Fluorophenyl)-4-[4-(methylsulfonyl)phenyl]-2-(trifluoromethyl)-1H-imidazole], the melting point lay in the range of 225 to 229 °C. Turning to `Cc1cc(-c2[nH]c(C(F)(F)F)nc2-c2ccc(S(C)(=O)=O)cc2)ccc1Cl` [Example 71, 5-(4-Chloro-3-methylphenyl)-4-[4-(methylsulfonyl)phenyl]-2-(trifluoromethyl)-1H-imidazole], the melting point was 261 to 264 °C. Then `CS(=O)(=O)c1ccc(-c2nc(C(F)(F)F)[nH]c2-c2ccsc2)cc1` [Example 76, 4-[4-(Methylsulfonyl)phenyl]-5-(3-thiophenyl)-2-(trifluoromethyl)-1H-imidazole], with 230 to 232 °C. In the case of `CS(=O)(=O)c1ccc(-c2nc(C(F)(F)F)[nH]c2-c2cccc(Cl)c2)cc1` [Example 68, 5-(3-Chlorophenyl)-4-[4-(methylsulfonyl)phenyl]-2-(trifluoromethyl)-1H-imidazole] it was 224 to 226 °C. Then `Cc1ccc(-c2[nH]c(C(F)(F)F)nc2-c2ccc(S(C)(=O)=O)cc2)cc1C` [Example 61], with 279 to 284 °C; and `COc1cc(-c2[nH]c(C(F)(F)F)nc2-c2ccc(S(C)(=O)=O)cc2)ccc1Cl` [Example 78, 5-(4-Chloro-3-methoxyphenyl)-4-[4-(methylsulfonyl)phenyl]-2-(trifluoromethyl)-1H-imidazole], with 233 to 234 °C. In turn, `Cn1c(C(F)(F)F)nc(-c2ccc(F)cc2)c1-c1ccc(S(C)(=O)=O)cc1` [Example 45, 4-(4-Fluorophenyl)-1-methyl-5-[4-(methylsulfonyl)phenyl]-2-(trifluoromethyl)-1H-imidazole] yielded a melting point of 193 to 195 °C.

Turning to `COc1ccc(-c2nc(C(F)(F)F)[nH]c2-c2ccc(S(C)(=O)=O)cc2)cc1OC` [Example 41, 4-(3,4-Dimethoxyphenyl)-5-[4-(methylsulfonyl)phenyl]-2-(trifluoromethyl)-1H-imidazole], the melting point is 221 to 224 °C. For the compound `Cc1c(F)cccc1-c1[nH]c(C(F)(F)F)nc1-c1ccc(S(C)(=O)=O)cc1` [Example 77, 5-(3-Fluoro-2-methylphenyl)-4-[4-(methylsulfonyl)phenyl]-2-(trifluoromethyl)-1H-imidazole], the melting point lay in the range of 192 to 196 °C. Consider `CS(=O)(=O)c1ccc(-c2nc(C(=O)Cc3ccccc3)[nH]c2-c2ccc(F)cc2)cc1` [Example 86, 1-[5-(4-Fluorophenyl)-4-[4-(methylsulfonyl)phenyl]-1H-imidazol-2-yl]-2-phenylethanone], for which the melting point worked out at 263.2 °C. Then `CS(=O)(=O)c1ccc(-c2nc(C(F)(F)F)[nH]c2C2CCCC2)cc1` [Example 75, 5-(Cyclopentyl)-4-[4-(methylsulfonyl)phenyl]-2-(trifluoromethyl)-1H-imidazole], with 210 to 212 °C. In the case of `Cc1ccc(-c2[nH]c(C(F)(F)F)nc2-c2ccc(S(C)(=O)=O)cc2)cc1Cl` [Example 73, 5-(3-Chloro-4-methylphenyl)-4-[4-(methylsulfonyl)phenyl]-2-(trifluoromethyl)-1H-imidazole] it was 273 to 275 °C; in that of `Cc1cc(Cl)cc(-c2[nH]c(C(F)(F)F)nc2-c2ccc(S(C)(=O)=O)cc2)c1` [Example 54, 5-(3-Chloro-5-methylphenyl)-4-[-(methylsulfonyl)phenyl]-2-(trifluoromethyl)-1H-imidazole], 260 to 262 °C; in that of `Cc1cc(C)cc(-c2[nH]c(C(F)(F)F)nc2-c2ccc(S(C)(=O)=O)cc2)c1` [Example 46, 5-(3,5-Dimethylphenyl)-4-[4-(methylsulfonyl)phenyl]-2-(trifluoromethyl)-1H-imidazole], 255 to 257 °C.

Source of the values: patent US6426360B1, “4,5-substituted imidazolyl compounds for the treatment of inflammation” (G D Searle & Co., priority 1994, dated 2002).
